The source made the active and inactive calls.
Key:
Hexokinase HKDC1 = biological target: T1, Hexokinase HKDC1 (Homo sapiens, UniProt Q2TB90); experiment: activation of HKDC1 glucose phosphorylation – biochemical, W721R variant, dose response (AID 504730); format: functional
T1 sequence (Q2TB90 whole entry): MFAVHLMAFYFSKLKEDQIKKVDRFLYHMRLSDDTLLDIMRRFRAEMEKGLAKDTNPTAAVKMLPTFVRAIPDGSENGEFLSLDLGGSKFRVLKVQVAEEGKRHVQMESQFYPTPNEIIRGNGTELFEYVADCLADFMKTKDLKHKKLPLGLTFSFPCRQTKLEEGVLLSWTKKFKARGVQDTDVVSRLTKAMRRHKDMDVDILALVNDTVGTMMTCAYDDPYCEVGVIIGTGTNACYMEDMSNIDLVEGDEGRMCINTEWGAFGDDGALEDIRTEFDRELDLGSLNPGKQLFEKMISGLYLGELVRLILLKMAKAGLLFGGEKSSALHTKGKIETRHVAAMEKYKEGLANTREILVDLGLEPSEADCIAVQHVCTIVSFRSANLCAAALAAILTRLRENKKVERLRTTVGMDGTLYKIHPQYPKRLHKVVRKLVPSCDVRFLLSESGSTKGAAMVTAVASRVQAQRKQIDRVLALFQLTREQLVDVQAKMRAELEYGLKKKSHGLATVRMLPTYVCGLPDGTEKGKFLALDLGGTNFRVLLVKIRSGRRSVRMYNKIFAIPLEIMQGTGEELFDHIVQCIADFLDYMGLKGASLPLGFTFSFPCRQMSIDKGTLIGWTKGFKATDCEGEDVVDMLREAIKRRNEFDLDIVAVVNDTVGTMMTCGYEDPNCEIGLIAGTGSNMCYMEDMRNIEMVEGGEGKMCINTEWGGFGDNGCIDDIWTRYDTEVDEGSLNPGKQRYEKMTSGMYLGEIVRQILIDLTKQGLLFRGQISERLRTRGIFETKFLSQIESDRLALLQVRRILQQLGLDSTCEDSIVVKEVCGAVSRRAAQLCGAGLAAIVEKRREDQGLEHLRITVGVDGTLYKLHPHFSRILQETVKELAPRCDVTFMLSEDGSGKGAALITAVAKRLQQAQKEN

Hexokinase-1 = Hexokinase-1 (Homo sapiens, UniProt P19367); experiment: HK1 enzyme activation by HKDC1 hits – biochemical, selectivity assay for HKDC1 activator project, dose response (AID 504762); format: functional
Hexokinase-1, sequence (P19367 whole entry): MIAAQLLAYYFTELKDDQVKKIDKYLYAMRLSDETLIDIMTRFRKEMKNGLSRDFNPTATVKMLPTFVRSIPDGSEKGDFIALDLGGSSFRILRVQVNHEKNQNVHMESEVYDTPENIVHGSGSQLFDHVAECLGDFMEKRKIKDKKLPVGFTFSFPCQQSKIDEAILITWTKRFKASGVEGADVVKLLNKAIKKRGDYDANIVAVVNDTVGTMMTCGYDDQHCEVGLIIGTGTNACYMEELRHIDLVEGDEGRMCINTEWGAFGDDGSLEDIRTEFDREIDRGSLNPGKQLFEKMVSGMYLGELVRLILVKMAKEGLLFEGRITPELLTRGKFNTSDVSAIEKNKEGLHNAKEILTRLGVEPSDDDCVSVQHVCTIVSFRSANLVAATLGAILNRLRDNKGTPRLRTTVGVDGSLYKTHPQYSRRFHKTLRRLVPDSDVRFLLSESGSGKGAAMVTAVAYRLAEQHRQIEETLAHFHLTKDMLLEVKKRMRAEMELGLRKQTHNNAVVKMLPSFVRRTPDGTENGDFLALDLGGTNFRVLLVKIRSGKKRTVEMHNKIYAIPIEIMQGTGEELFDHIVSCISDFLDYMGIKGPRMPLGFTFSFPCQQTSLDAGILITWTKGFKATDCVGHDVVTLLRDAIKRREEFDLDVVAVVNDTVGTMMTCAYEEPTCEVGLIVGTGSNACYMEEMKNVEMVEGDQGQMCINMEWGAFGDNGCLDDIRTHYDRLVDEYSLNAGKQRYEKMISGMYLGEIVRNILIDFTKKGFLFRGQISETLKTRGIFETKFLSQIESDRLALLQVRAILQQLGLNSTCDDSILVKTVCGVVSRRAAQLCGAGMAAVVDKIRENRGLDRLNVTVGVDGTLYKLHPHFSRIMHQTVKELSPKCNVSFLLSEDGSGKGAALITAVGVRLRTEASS

Protein RecA = biological target: T2, Protein RecA (Mycobacterium tuberculosis, UniProt P9WHJ3); experiment: Fluorescence Cell-Free Homogeneous Dose Retest to Identify Inhibitors of RecA-Intein Splicing Activity. [Related pubchem assays (depositor defined):AID2097, AID2223, AID489010, AID492950]; format: functional
T2 sequence (P9WHJ3 whole entry): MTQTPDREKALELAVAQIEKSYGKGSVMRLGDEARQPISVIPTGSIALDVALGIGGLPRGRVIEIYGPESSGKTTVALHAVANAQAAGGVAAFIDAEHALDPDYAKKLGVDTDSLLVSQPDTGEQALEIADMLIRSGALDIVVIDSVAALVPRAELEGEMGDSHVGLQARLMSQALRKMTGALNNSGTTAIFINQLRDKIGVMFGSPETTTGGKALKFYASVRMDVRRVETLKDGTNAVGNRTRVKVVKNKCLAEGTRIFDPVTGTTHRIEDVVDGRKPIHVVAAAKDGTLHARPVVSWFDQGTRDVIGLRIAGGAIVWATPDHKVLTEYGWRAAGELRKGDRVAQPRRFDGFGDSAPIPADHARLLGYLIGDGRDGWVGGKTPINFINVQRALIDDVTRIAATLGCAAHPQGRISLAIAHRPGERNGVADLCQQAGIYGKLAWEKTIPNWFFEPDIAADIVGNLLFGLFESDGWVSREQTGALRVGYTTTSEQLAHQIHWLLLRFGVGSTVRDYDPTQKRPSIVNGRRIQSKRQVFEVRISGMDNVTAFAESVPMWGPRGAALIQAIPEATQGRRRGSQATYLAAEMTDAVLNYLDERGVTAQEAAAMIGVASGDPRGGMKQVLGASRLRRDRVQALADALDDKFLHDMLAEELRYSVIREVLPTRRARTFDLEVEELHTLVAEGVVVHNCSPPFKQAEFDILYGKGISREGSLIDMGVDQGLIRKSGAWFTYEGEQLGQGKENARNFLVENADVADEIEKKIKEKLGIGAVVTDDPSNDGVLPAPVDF

INS1 = experiment: INS-1E survival protection against cytokine death – cell-based, luminescence, retest, dose response (AID 449756); format: functional; details: Rattus norvegicus;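 also: cell death triggered by IL-1 beta plus TNF-alpha plus IFN-gamma mixture; protective hits raise ATP signal compared with cytokine alone wells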
[1] = biological target: Neuropeptide Y receptor type 2 (Homo sapiens, UniProt P49146); format: functional, cell-based;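 also: HEK293 cells expressing the receptor and a CNG channel; stimulus was NPY near EC95 followed by isoproterenol to raise cAMP; antagonist potency measured as restoring cAMP signal that NPY suppresses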
Neuropeptide Y receptor type 2, sequence (P49146 whole entry): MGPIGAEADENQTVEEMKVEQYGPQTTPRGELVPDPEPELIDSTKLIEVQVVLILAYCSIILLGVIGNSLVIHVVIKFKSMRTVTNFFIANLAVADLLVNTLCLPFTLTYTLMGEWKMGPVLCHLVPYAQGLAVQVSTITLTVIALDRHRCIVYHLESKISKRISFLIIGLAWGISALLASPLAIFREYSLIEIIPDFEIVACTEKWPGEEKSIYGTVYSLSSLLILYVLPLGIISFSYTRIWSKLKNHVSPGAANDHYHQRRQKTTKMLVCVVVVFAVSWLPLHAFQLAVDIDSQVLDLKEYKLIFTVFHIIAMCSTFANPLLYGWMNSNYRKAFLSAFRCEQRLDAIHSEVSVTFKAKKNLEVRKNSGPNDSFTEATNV

[2] = biological target: T3, Replicative DNA helicase DnaB (Mycobacterium tuberculosis, UniProt P9WMR3); experiment: DnaB intein splicing inhibitors, dose response, biochemical, cell-free fluorescence (AID 449749); format: functional
T3 sequence (P9WMR3 whole entry): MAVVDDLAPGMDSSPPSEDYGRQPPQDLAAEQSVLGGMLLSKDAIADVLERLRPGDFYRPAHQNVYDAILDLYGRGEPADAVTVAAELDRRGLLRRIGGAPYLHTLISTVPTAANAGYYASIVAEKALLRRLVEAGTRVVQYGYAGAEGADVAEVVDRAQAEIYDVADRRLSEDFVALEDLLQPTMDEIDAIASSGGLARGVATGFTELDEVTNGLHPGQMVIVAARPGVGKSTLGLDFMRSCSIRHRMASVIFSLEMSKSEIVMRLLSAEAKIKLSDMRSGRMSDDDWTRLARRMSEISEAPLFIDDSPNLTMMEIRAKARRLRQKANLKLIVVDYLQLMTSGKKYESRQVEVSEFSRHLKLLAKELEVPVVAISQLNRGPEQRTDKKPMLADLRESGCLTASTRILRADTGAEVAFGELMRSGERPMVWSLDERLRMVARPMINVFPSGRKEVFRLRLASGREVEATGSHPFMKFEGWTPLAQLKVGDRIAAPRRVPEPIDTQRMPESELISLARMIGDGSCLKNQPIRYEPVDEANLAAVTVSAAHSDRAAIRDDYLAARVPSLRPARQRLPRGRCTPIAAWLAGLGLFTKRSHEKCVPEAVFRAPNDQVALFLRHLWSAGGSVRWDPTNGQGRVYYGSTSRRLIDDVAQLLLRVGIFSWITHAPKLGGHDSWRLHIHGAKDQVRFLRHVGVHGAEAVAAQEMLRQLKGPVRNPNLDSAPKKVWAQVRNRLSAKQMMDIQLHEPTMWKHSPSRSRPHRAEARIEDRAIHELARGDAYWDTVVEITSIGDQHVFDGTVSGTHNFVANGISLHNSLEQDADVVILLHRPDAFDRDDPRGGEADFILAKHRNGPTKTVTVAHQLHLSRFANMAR

[3] = biological target: Neuropeptide Y receptor type 1 (Homo sapiens, UniProt P25929); format: functional;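 also: HEK293 cells with a CNG channel challenged with NPY then isoproterenol; potency as antagonist that reverses NPY suppression of cAMP signal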
Neuropeptide Y receptor type 1, sequence (P25929 whole entry): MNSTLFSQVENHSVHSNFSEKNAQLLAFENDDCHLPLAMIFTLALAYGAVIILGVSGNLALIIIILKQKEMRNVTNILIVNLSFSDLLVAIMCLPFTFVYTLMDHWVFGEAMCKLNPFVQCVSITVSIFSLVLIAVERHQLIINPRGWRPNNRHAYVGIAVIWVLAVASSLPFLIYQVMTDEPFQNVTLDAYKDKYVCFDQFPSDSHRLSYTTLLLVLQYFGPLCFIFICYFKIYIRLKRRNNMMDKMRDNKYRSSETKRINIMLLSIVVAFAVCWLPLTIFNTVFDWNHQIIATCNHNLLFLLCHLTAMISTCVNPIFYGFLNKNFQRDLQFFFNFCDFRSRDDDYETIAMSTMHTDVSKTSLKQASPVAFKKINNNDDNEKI

[4] = Intein inhibitors as potential Tuberculosis drugs, a cytotoxicity screen. [Related pubchem assays (depositor defined):AID2221, AID2223, AID434968, AID435010, AID449749, AID449750, AID489010]; format: functional
[5] = biological target: T4, Ubiquitin-conjugating enzyme E2 N (Homo sapiens, UniProt P61088); format: functional
T4 sequence (P61088 whole entry): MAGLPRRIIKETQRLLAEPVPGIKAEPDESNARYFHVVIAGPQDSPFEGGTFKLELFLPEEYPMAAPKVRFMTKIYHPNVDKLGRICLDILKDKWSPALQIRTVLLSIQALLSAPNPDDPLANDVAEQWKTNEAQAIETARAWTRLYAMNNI

[6] = biological target: Lysine-specific demethylase 4C (Homo sapiens, UniProt Q9H3R0); experiment: inhibition of JMJD2C H3K9me3 demethylation – biochemical, DELFIA europium, cherry-picked samples, dose response (AID 488835); format: functional
Lysine-specific demethylase 4C, sequence (Q9H3R0 whole entry): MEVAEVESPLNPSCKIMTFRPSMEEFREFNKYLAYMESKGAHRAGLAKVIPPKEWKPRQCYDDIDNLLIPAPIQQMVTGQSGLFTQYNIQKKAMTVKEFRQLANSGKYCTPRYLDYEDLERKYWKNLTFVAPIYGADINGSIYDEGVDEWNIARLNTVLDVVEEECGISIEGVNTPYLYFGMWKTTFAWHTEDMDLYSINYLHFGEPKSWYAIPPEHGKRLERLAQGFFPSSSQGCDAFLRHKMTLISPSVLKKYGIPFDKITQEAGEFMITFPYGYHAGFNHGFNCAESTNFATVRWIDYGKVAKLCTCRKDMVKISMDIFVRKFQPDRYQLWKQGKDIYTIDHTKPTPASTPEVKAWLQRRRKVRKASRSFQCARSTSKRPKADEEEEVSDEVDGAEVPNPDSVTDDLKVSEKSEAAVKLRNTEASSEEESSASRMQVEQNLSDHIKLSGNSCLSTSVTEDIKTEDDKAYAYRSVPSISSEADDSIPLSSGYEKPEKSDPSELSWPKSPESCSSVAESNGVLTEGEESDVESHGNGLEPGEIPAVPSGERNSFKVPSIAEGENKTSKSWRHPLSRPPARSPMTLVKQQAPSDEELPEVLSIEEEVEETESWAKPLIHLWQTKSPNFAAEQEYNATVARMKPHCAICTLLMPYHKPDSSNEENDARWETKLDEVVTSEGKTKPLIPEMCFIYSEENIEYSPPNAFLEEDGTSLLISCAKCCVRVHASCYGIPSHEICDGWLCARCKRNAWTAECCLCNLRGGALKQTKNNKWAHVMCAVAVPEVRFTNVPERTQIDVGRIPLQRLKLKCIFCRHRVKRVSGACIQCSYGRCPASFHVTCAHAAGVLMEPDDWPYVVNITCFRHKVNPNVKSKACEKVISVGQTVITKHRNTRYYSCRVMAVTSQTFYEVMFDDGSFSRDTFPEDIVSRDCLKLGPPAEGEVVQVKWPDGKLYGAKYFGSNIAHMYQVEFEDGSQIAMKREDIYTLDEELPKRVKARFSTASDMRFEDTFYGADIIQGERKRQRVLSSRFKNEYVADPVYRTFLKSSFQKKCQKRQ

Nonstructural protein 1 = Nonstructural protein 1 (Influenza A virus, UniProt Q194T2); format: functional, Influenza A virus (A/California/07/2009(H1N1))
Nonstructural protein 1, sequence (Q194T2 whole entry): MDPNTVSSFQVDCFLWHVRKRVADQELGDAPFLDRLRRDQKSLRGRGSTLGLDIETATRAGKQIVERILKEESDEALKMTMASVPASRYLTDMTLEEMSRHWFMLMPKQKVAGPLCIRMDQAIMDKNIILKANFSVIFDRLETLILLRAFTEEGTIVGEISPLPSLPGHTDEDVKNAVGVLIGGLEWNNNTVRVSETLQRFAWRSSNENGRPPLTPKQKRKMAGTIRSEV

[7] = biological target: T4, Ubiquitin-conjugating enzyme E2 N; format: functional; remark: listed apart in the source
Bcl-2-related protein A1 = biological target: T5, Bcl-2-related protein A1 (Mus musculus, UniProt Q07440); format: functional;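 also: confirmatory dose–response counterscreen on Bfl-1, used to check hits from a UBC13 polyubiquitin inhibitor campaign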
T5 sequence (Q07440 whole entry): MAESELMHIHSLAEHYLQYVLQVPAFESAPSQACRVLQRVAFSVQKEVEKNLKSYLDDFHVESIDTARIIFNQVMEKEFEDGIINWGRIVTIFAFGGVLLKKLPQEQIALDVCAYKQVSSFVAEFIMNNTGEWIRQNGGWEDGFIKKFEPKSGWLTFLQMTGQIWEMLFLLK

[8] = HGIII-sPLA2 enzyme inhibition potency – biochemical, QFRET, IC50, dose response (AID 743457);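 also: green fluorescence rise as the enzyme cleaves BODIPY PC-A2 in liposomes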
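For CC50 in this document: cells exposed to compound for 72 hours before luminescence readout.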

SMILES: Cc1ccccc1NC1=NN=C(c2ccccc2F)CS1
- EC50 (Hexokinase HKDC1): 27 µM (inactive)
- EC50 (Hexokinase-1): 53.2 µM (inactive)

SMILES: COC(=O)c1c(C)oc2ccc(N(C(=O)c3ccncc3)S(=O)(=O)c3ccc4ccccc4c3)cc12
- EC50 (Protein RecA): 4.08 µM (active)
- AC50 (INS1): 12.9 µM (active)
- IC50 [1]: 7.94 µM (active)
- AC50 [2]: 4.46 µM (active)
- IC50 [3]: 4.84 µM (active)
- CC50 [4]: 36.5 µM (active)

SMILES: Cc1cccc(-n2cnc(C(=O)NN=C(S)Nc3ccccc3)c2)n1
- IC50 [5]: 6.96 µM (active)
- AC50 [6]: 5.67 µM (active)
- IC50 (Nonstructural protein 1): 4.86 µM (active)
- IC50 [7]: 14.8 µM (active)
- IC50 (Bcl-2-related protein A1): > 20 µM (inactive)
- IC50 [8]: > 122 µM (inactive)
